Earlier results on 1 molecule are cited in US11612656B2, “Use of small molecule based on indotricarbocyanine structure in preparation of medicines for tumor photothermal therapy” (Nanjing Nuoyuan Medical Devices Co., LTD., priority 2021, dated 2023).

Each structure is given as a SMILES string.

For the series the following is noted: free ICG 20 μg/ml, light irradiation at power density 1 W/cm^2.

Turning to `CC1(C)C(/C=C/C=C/C=C/C=C2/N(CCCCS(=O)(=O)O)c3ccc4ccccc4c3C2(C)C)=[N+](CCCCS(=O)(=O)O)c2ccc3ccccc3c21.[Na+]` [ICG, Indocyanine green], the “photothermal conversion efficiency (PTCE)” value was 15.1%.
